Read-outs that look alike come from different tables or passages of the source. One block for each substance: values may come before it.
Tests used:
DCAF10 = experiment: Peptide pull-down with quantitative MS, HeLa lysate, DCAF10; format: binding, human (HeLa)
human NatA = target: T1, human NatA (Homo sapiens, UniProt P41227+Q9BXJ9); experiment: In vitro Nt-acetylation assay (NatA, CPM fluorescence); format: biochemical
T1 construct: Human NatA (hNatA) full-length (FL) was cloned; made in house; host or cells: Tnao38 insect cells (baculovirus, pFL vector)
T1 sequence (P41227 1-235): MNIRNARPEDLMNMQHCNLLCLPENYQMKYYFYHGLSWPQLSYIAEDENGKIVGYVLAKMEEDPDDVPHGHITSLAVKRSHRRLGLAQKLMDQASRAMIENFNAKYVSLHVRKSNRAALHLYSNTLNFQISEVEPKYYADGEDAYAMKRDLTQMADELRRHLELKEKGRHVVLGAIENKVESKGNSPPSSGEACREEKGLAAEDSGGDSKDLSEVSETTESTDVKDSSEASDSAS
T1 sequence (Q9BXJ9 1-866 partner): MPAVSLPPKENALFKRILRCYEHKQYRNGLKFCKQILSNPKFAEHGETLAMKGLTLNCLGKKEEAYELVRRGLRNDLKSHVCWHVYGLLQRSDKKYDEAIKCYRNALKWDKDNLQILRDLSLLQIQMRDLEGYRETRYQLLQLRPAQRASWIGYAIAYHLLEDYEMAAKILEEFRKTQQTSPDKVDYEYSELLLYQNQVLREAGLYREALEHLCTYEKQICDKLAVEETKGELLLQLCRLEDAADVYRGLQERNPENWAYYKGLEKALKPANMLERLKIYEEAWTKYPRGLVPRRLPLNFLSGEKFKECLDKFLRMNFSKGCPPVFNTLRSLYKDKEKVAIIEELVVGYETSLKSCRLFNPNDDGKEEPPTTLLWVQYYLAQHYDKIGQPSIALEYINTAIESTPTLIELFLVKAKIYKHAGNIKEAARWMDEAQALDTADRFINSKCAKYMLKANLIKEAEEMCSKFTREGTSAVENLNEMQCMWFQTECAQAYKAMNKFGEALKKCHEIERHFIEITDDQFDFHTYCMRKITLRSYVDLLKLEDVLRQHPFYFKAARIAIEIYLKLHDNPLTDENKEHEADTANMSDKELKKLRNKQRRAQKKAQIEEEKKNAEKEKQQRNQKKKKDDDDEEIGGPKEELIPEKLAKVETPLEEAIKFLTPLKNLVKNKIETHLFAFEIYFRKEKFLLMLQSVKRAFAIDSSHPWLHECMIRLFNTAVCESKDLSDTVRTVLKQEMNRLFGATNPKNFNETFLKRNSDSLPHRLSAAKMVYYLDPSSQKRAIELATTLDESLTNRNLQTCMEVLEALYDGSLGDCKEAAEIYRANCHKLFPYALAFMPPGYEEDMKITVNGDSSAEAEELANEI
Description: Gly-starting proteins can be substrates of the Nt-acetyltransferase NatA[3],[21]. Having established direct DCAF10 binding to Ac-Gly N-termini, we next asked whether SFK N-termini are bona fide NatA substrates. We developed an in vitro Nt-acetylation assay comprising purified NatA, acetyl-CoA (Ac-CoA), and the peptide of interest (Fig. 3a, b)[33]. Acetyl-group transfer was assessed using CPM [7-(diethylamino)−3-(4′-maleimidophenyl)−4-methylcoumarin], which reacts specifically with free thiol groups to produce a highly fluorescent product (excitation: 390 nm; emission: 479 nm), allowing detection of CoA production after acetyl-group transfer to the peptide (Supplementary Fig. 4e). We optimized the conditions to determine Michaelis–Menten kinetics for NatA-mediated Nt-acetylation with a target peptide ([…]) previously used for NatA assays and co-crystallization (Supplementary Fig. 4f)[34]. […] Likely, this was due to a Km even higher than that of Src, and implying that the peptide concentrations in the assay might have been insufficient for the reaction to proceed with an appreciable rate. […] Negative controls (COX17 and Ac-Lyn) produced low signals. […] Given the direct association of NatA with SFK N-termini at the ribosomal exit tunnel, however, we surmise that Nt-acetylation of SFKs in cells may proceed despite these unfavorable kinetic parameters.
The assay was performed essentially as described previously. Briefly, peptide substrates (Supplementary Table 1) were incubated with purified human NatA and acetyl-CoA; acetylation was quantified by CPM fluorescence (CoA detection), and Michaelis–Menten parameters were derived from 8-point 1:1 dilution series within the linear range (n = 4 independent enzymatic assays). Full buffer compositions, reagent concentrations, plate format, instrument settings, controls, and fitting procedures are provided in the Supplementary Methods and Tables. […]
301 Cloning, expression, and purification of human NatA
302 Human NatA (hNatA) full-length (FL) was cloned in a pFL vector expressing both
303 genes, NAA15 with a 6× C-term histidine tag (NAA15-6xHIS) and NAA102. The
304 expression was carried out in insect cells (Tnao38) for 72 h infected 1:20 with
305 baculovirus. Washed cell pellets were lysed by sonication in a lysis buffer containing 200
306 mM NaCl, 50 mM HEPES pH 8.0, 20 mM Imidazole, and 2 mM TCEP. The protein
307 purification was performed as a three-step purification, starting with an affinity nickel
308 column, followed by an ion-exchange column with a gradient of 50–300 mM NaCl, and
309 finished with size exclusion chromatography (SEC) using an S200 10/300 column. The
310 main peaks were collected, and the protein was concentrated in the SEC buffer (150 mM
311 NaCl, 50 mM HEPES pH 8.0, 1 mM EDTA). The purified hNatA was flash-frozen in
312 liquid nitrogen and stored at -80°C.
314 In vitro Nt-acetylation assay
315 The method has been described in detail previously2. Briefly, different peptides
316 (Supplementary Table 1) and concentrations (an eight-step, 1:1 dilution series for
317 Michaelis-Menten curves) as indicated were incubated with 20 nM hNatA and 80 µM Ac-
318 CoA in reaction buffer (50 mM HEPES pH 8.0, 0.5 mM EDTA, 0.005% CHAPS) for 60
319 (Src) or 120 min (Lyn), at RT in a 384-well microplate (Corning 4514) (n = 4).
320 Afterwards, the enzymatic reaction was stopped by adding 1:1 DMSO with 10 µM (final
321 concentration 5 µM) of the thiol reactive CPM (7-Diethylamino-3-
322 (4'Maleimidylphenyl)4-Methylcoumarin). After 1 h at RT, the readout was performed
323 with a Tecan Spark® Multimode Microplate Reader (excitation 390 nm, emission 479
324 nm). Background values at 0 µM peptide were subtracted, and control reactions omitting
325 NatA or Ac-CoA were performed. Dilution series of CoA incubated with 5 µM CPM were
326 used to generate a linear equation (y = 10.99*x + 81.06) to calculate acetylation velocities
327 for NatA-mediated peptide acetylation. […]

[1] = 20 nM NatA, 80 µM Ac-CoA, pH 8.0, RT, 60 min, CPM fluorescence 390/479 nm, mean ± s.d., n = 4, read-out: Km

- Km (human NatA; [1]): 8.4 ± 1.7 µM
Substance: NatA target peptide: target peptide previously used for NatA assays and co-crystallization (SASEAGVRWG) [reference compound]

- Km (human NatA; [1]): 144 ± 24 µM
- Km (human NatA; conclusion: poor NatA substrates, read-out: Km, summary statement): > 100 µM
- Km (human NatA; rounded values in Peer Review File, read-out: Km, as given in rebuttal): 143 µM
Substance: GSNKSKPKDAKK [Nt-free Src, Nt-peptide of Src, Nt-free]

- Nt-acetylation by NatA (in words) (human NatA; original assay, peptide up to 160 μM): no detectable acetylation
- Nt-acetylation by NatA (in words) (human NatA; starting peptide concentration 1 mM): low signals
Substance: PGLVDSNPAPKK [COX17, Pro-starting peptide from COX17, negative control, reference compound]

More lines, now with the values behind:

Substance: PCIKSKGKDSKK [Lyn^G2P, Nt-free Pro mutant Nt-peptide of Lyn]
- DCAF10 binding of Nt-mutant peptides (in words) (DCAF10; n = 3 replicates): failed to bind DCAF10 in all replicates

Substance: GCIKSKENKSKK [Ac-Yes, Nt-peptide of Yes, Nt-acetylated]
- DCAF10 binding (in words) (DCAF10; HeLa lysate, Nt-Ac vs Nt-free peptides): bound to DCAF10

Substance: GSNKSKPKDAKK [Myr-Src, Nt-peptide of Src, N-myristoylated]
- DCAF10 binding, Nt-Ac vs Nt-Myr (in words) (DCAF10; HeLa lysate): no detectable DCAF10 binding
